Assay results from patent US20210369853A1, “TARGETED PROTEASE DEGRADATION PLATFORM” (EUBULUS BIOTHERAPEUTICS INC., priority 2018, published 2021).
Where two headings read alike, the source gives them in different places.

Tests used:
Format in all cases: cell-based
[1] = tested on: Human Monocytic Leukemia MV4-11; assay: Cell proliferation experiment (Alarm blue, 72 h, EC50); details: Homo sapiens, MV4-11, MV4;11 cells
Outline: (§1)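 Single-cell suspensions from log-phase cultures are plated, compound in complete medium is added at 5-fold dilution steps (two replicates each), and cells grow for 72 h. Viability is then measured as Alamar blue fluorescence, giving EC50 by sigmoidal fitting.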

BRD4 = target: T1, BRD4 (Homo sapiens, UniProt O60885); assay: Western blot, protein degradation (DC50)
T1 construct: endogenous in cells
Protocol: (§2) Cells were treated with the compound for a period of time, after that the cells were collected by centrifugation. After washing with PBS, the cells were lysed by adding RIPA buffer; the cell lysate were added to the loading buffer and then appropriate volume were taken and slowly added to the corresponding wells of the gel plate, and run the SDS-PAGE gel (4%-12%). After running the gel, transferred to the PVDF membrane and sealed with 5% skimmed milk powder at room temperature for 1 hour. The membrane was placed in the primary antibody diluted with 5% skimmed milk powder and shaked slowly overnight at 4° C. After incubation with primary antibody, the membrane was washed 3 times using a TBST shaker; added secondary antibody diluted with 5% skimmed milk powder corresponding to the primary antibody, and shaked slowly at room temperature for 1 hour. After incubation with secondary antibody, the membrane was washed 3 times using the TBST shaker again. The PVDF membrane was flatted in the cassette, the strip was evenly infiltrated with ECL developer solution, and placed in ChemDoc XRS+ gel imager for taking pictures. The intensity of protein bands was analyzed quantitatively using ImageJ software.

PLK1 = target: T2, PLK1 (Homo sapiens, UniProt P53350); assay: Western blot, protein degradation (DC50)
T2 construct: endogenous in cells
Protocol: as §2

[2] = tested on: Human Colon Cancer HCT-116; assay: Cell proliferation experiment (Alarm blue, 72 h, EC50); details: Homo sapiens, HCT-116; HCT116 cells
Outline: as §1

[3] = 24 h, read-out: BRD4 DC50 (24 h)

T2 sequence (P53350 whole entry): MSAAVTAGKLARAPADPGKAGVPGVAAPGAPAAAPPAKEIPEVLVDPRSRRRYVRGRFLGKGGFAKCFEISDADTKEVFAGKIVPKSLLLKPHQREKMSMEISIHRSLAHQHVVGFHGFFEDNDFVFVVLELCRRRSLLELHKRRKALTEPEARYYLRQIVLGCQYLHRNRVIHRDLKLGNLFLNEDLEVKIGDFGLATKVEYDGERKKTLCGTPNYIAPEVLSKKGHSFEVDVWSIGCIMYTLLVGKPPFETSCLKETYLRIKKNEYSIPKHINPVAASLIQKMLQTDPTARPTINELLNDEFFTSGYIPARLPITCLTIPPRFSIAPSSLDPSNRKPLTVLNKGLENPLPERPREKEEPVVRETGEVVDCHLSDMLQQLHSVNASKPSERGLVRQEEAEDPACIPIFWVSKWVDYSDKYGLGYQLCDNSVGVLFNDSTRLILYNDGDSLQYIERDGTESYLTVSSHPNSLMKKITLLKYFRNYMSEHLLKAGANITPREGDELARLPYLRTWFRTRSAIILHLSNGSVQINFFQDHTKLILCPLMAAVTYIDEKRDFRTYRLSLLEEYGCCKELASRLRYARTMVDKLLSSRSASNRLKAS

SMILES | EC50 [1] [nM] | EC50 [2] [nM] | also measured
O=C1CCC(N2Cc3c(NC(=O)CCOCCOCCNC(=O)[C@]4(Cc5cccc(Nc6nccs6)n5)CC[C@@H](Oc5cccc(Cl)c5F)CC4)cccc3C2=O)C(=O)N1 (stereo partly shown) [UB-180590] | > 1000 | > 1000 | –
CC[C@@H]1c2c(C#N)ncn2-c2cnc(Nc3ccc(C(=O)NCCOCCOCCOCC(=O)Nc4cccc5c4C(=O)N(C4CCC(=O)NC4=O)C5=O)cc3OC)nc2N1Cc1ccc(Br)cc1 (stereo partly shown) [UB-180594] | – | – | DC50 (BRD4; 6 h, read-out: BRD4 DC50 (6 h)): > 1000 nM; DC50 (PLK1; 6 h, read-out: PLK1 DC50 (6 h)): > 1000 nM
CC[C@@H]1C(=O)N(C)c2cnc(Nc3ccc(C(=O)NCCOCCOCCOCC(=O)N[C@H](C(=O)N4C[C@H](O)C[C@H]4C(=O)NCc4ccc(-c5scnc5C)cc4)C(C)(C)C)cc3OC)nc2N1Cc1ccc(Br)cc1 [UB-180601] | – | – | DC50 (BRD4; 6 h, read-out: BRD4 DC50 (6 h)): > 1000 nM; DC50 (PLK1; 6 h, read-out: PLK1 DC50 (6 h)): > 1000 nM
CC[C@@H]1C(=O)N(C)c2cnc(Nc3ccc(C(=O)NCCOCCOCCOCCC(=O)N[C@H](C(=O)N4C[C@H](O)C[C@H]4C(=O)NCc4ccc(-c5scnc5C)cc4)C(C)(C)C)cc3OC)nc2N1Cc1ccc(Br)cc1 [UB-180602] | – | – | DC50 (BRD4; 6 h, read-out: BRD4 DC50 (6 h)): > 1000 nM; DC50 (PLK1; 6 h, read-out: PLK1 DC50 (6 h)): > 1000 nM
O=C1CCC(N2Cc3c(NC(=O)CCNC(=O)[C@]4(Cc5cccc(Nc6nccs6)n5)CC[C@@H](Oc5cccc(Cl)c5F)CC4)cccc3C2=O)C(=O)N1 (stereo partly shown) [UB-180616] | > 1000 | > 1000 | –
O=C1CCC(N2Cc3c(NC(=O)CCNC(=O)c4ccc(Nc5ncc6c(n5)-c5ccc(Cl)cc5C(c5c(F)cccc5F)=NC6)cc4)cccc3C2=O)C(=O)N1 (stereo not shown) [UB-180617] | > 1000 | > 1000 | –

Now from value to compound, other results behind:

EC50 [1] [nM] | EC50 [2] [nM] | SMILES | also measured
10 to 100 | – | CC[C@@H]1C(=O)N(C)c2cnc(Nc3ccc(C(=O)NCCNc4cccc5c4CN(C4CCC(=O)NC4=O)C5=O)cc3OC)nc2N1C1CCCC1 (stereo partly shown) [UB-180567] | DC50 (BRD4; 6 h, western blot, read-out: BRD4 DC50 (6 h)): > 1000 nM; DC50 (PLK1; 6 h, western blot, read-out: PLK1 DC50 (6 h)): > 1000 nM
10 to 100 | – | CC[C@@H]1C(=O)N(C)c2cnc(Nc3ccc(C(=O)NCCCNc4cccc5c4C(=O)N(C4CCC(=O)NC4=O)C5=O)cc3OC)nc2N1C1CCCC1 (stereo partly shown) [UB-180579] | DC50 (BRD4; 6 h, read-out: BRD4 DC50 (6 h)): 100 to 1000 nM; DC50 (PLK1; 6 h, read-out: PLK1 DC50 (6 h)): 100 to 1000 nM
10 to 100 | > 1000 | O=C1CCC(N2Cc3c(NC(=O)CCOCCCOCCOCCNC(=O)c4ccc(Nc5ncc6c(n5)-c5ccc(Cl)cc5C(c5c(F)cccc5F)=NC6)cc4)cccc3C2=O)C(=O)N1 (stereo not shown) [UB-180610] | –
10 to 100 | > 1000 | O=C1CCC(N2Cc3c(NC(=O)CCOCCCOCCOCCNC(=O)[C@]4(Cc5cccc(Nc6nccs6)n5)CC[C@@H](Oc5cccc(Cl)c5F)CC4)cccc3C2=O)C(=O)N1 (stereo partly shown) [UB-180611] | –
10 to 100 | – | CC[C@@H]1C(=O)N(C)c2cnc(Nc3ccc(C(=O)NCCCOCC(N)COCCC(=O)Nc4cccc5c4CN(C4CCC(=O)NC4=O)C5=O)cc3OC)nc2N1C1CCCC1 (stereo partly shown) [UB-180624] | DC50 (BRD4; [3]): < 10 nM
100 to 1000 | > 1000 | Cc1sc2c(c1C)C(c1ccc(Cl)cc1)=N[C@@H](CC(=O)NCCCNCCCCCCC(=O)Nc1cccc3c1CN(C1CCC(=O)NC1=O)C3=O)c1nnc(C)n1-2 (stereo partly shown) [UB-180629] | –
100 to 1000 | > 1000 | Cc1sc2c(c1C)C(c1ccc(Cl)cc1)=N[C@@H](CC(=O)NCCCNCCCCCCCC(=O)Nc1cccc3c1CN(C1CCC(=O)NC1=O)C3=O)c1nnc(C)n1-2 (stereo partly shown) [UB-180630] | –
10 to 100 | – | CC[C@@H]1C(=O)N(C)c2cnc(Nc3ccc(C(=O)NCCCNCCCCCCC(=O)Nc4cccc5c4CN(C4CCC(=O)NC4=O)C5=O)cc3OC)nc2N1C1CCCC1 (stereo partly shown) [UB-180631] | DC50 (BRD4; [3]): < 10 nM; DC50 (PLK1; 24 h, read-out: PLK1 DC50 (24 h)): 10 to 100 nM
